The values that follow come from patent US20190091248A1, “AGENT FOR INCREASING INTESTINAL BUTYRIC ACID AND PROLIFERATION AGENT FOR BUTYRIC ACID-PRODUCING BACTERIA” (B FOOD SCIENCE CO., LTD., priority 2016, published 2019).

Series [1] relates to short chain fatty acids in cecal contents. The series can be described thus: Amount of intestinal short chain fatty acid in cecal contents upon intake of 1-kestose (GC/MS). In kind it is in vivo, SD rats. Particulars: for concentration of butyric acid in cecal contents: 30 days ad libitum; for amount of butyric acid in cecal contents: 30 days, calculated from concentration, Group A 781.14 μg. On the procedure:
(1) Breeding of Rats with Giving Oral Intake of 1-Kestose
The feeds containing 0, 0.5, 1.0, 2.5, and 5% by mass of 1-kestose were prepared by CLEA Japan, Inc. on commission. The composition of the feeds is described below. 40 SD rats (Japan SLC, Inc.) were divided into 5 groups of 8 animals and designated as Groups A to E. The rats were maintained for 30 days with ad libitum feeding of the feed without 1-kestose to Group A and of the ones with 1-kestose to Groups B to E, respectively. The rats were maintained under conditions at 23±1° C. in temperature with 12 hours of light periods (from 8:00 to 20:00) and 12 hours of dark periods (from 20:00 to 8:00).
[Composition (in % by mass) of feeds] Cornstarch 39.7486, milk casein 20, pregelatinized cornstarch 13.2, granulated sugar and/or 1-kestose (99% by mass in purity, B Food Science Co., Ltd.) 10, purified soybean oil 7, cellulose powder 5, mineral mixture 3.5, vitamin mixture 1, L-cystine 0.3, choline bitartrate 0.25, tert-butylhydroquinone 0.0014.
The rats in each group described in Example 1 (1) were dissected and their ceca were extracted. The contents of the ceca were collected and weighed. The concentrations of short chain fatty acids (butyric acid, propionic acid, isobutyric acid, acetic acid, isovaleric acid, and valeric acid) in the cecal contents were measured with a gas chromatography-mass spectrometer (GC/MS). The amounts of the short chain fatty acids in the cecal contents were calculated from the results of the measurement of the short chain fatty acid concentrations. Subsequently, the means of concentrations and amounts of short chain fatty acids for each group were calculated and shown in bar graphs. The results are illustrated in FIGS. 1 to 3.

For series [2], the system named is Clostridium cluster-XIVa and Clostridium cluster-XIVb (a group of butyric acid-producing bacteria). The series is described as follows: Real-time PCR of 16S rDNA copy number in cecal contents upon intake of 1-kestose. The class given is in vivo, SD rats. On the procedure:
(§1) The amounts of the following 4 microorganisms in the cecal contents of rats in Groups A and E described in Example 1 (1) were measured by real-time PCR.
2. Clostridium cluster-XIVa and Clostridium cluster-XIVb (a group of butyric acid-producing bacteria),
(§2) Specifically, the cecal contents of Groups A and E were disrupted with the bead beating system “FastPrep FP100A” (MP Biomedicals, LLC.). Subsequently, genomic DNA was extracted with the nucleic acid extraction instrument “Magtration® System 12GC” and its exclusive reagent “MagDEA® DNA 200” (Precision System Science Co., Ltd.) according to the instructions. Using this genomic DNA as a template, the real-time PCR was performed with primers specific for the 16S rDNAs of the aforementioned 4 microorganisms, the real-time PCR reagent “SYBR® Premix Ex Taq II (Tli RNaseH Plus)” (Takara), and the real-time PCR device “Rotor-Gene Q” (QIAGEN N.V.) and the copy numbers of the 16S rDNA from each microorganism per 1 g of the cecal contents were determined. The means and standard deviation of the copy numbers were calculated for each group and illustrated in bar graphs.
(§3) The sequences of the primers specific for 16S rDNA of each microorganism are listed below.
(§4) The standard curve was made from the result of real-time PCR for each microorganism under the same conditions using a plasmid DNA in which a part of the following sequence is incorporated as a template.
2. Clostridium clusters-XIVa and -XIVb (a group of butyric acid-producing bacteria); 16S rDNA sequence (SEQ ID NO: 10) of Clostridium clostridioforme JCM1291T
(Quantitative PCR measures a nucleic acid by following its amplification.)

For series [3], the system named is The genus Bifidobacterium. The series is described as above. As to conditions: Group E. The class given is in vivo, SD rats. On the procedure:
as §1
1. The genus Bifidobacterium,
as §2, §3, §4
1. […]

The subject of the next series is The genus Lactobacillus. The series is described as above. The class given is in vivo, SD rats. Here is the method:
as §1
3. The genus Lactobacillus
as §2, §3, §4
3. […]

The next series deals with Akkermansia muciniphila. The description is as above. In kind it is in vivo, SD rats. Here is the method:
as §1
4. Akkermansia muciniphila
as §2, §3, §4
4. […]

The conditions of series [4]: Food processing and ingredients, Vol. 49, No. 12, p. 9, 2014; cited from earlier work.
The subject of series [5] is ulcerative colitis model rats induced by dextran sulfate sodium (DSS). As to conditions: injection into the intestine; cited from earlier work.
In series [6] the test system is fatty degeneration and inflammation in the liver by the intake of high-fat meals. Particulars: oral administration, 0.02 g/kg body weight per day; cited from earlier work.
Series [7] relates to childhood diabetes model rat. As to conditions: intraperitoneal, 500 mg/kg of body weight per day (in terms of the dose of sodium butyrate); cited from earlier work.
For series [8], the system named is LIM1215, human colorectal cancer cells. Particulars: final concentration of 1 mmol/L; cited from earlier work.
Series [9] has as its system obesity induced by high-fat meals. Particulars: cited from earlier work.
[10] abbreviates: Group B: feed with 0.5% by mass 1-kestose.
The mark [11] stands for this setting: Group C: feed with 1.0% by mass 1-kestose.
Where [12] appears, read: Group D: feed with 2.5% by mass 1-kestose.
Setting [13] is: Group E: feed with 5% by mass 1-kestose.
[14] abbreviates: Groups B, C, D and E, cecal contents.

SMILES strings stand for the structures.

In the case of `OC[C@H]1O[C@@](CO)(OC[C@@]2(O[C@H]3O[C@H](CO)[C@@H](O)[C@H](O)[C@H]3O)O[C@H](CO)[C@@H](O)[C@@H]2O)[C@@H](O)[C@@H]1O` [1-kestose], in series [1] (setting [10]), the “increase of butyric acid amount relative to Group A” value is listed as “approximately 1.4 times of that in Group A”, the “increase of butyric acid concentration relative to Group A” value is listed as “approximately 1.4 times of that in Group A” and the “amount of butyric acid in cecal contents” value was 1069.37 µg. Moreover, the “concentration of butyric acid in cecal contents” value (from here on “concentration of butyric acid”) in [1] (Group B: feed with 0.5% by mass 1-kestose, daily intake 0.27 g/kg body weight, Group A (no 1-kestose) 205.86 μg/g) turned out to be 288.09 µg/g. Moreover, in [1] (setting [11]), the “increase of butyric acid amount relative to Group A” value is on record as “approximately 1.4 times of that in Group A”, the “increase of butyric acid concentration relative to Group A” value is recorded as “approximately 1.5 times of that in Group A” and the “amount of butyric acid in cecal contents” value was 1107.92 µg. Further, the “concentration of butyric acid” value in series [1] (Group C: feed with 1.0% by mass 1-kestose, Group A 205.86 μg/g) came out at 314.59 µg/g. Further, in series [1] (setting [12]), the “increase of butyric acid amount relative to Group A” value was “approximately 3.6 times of that in Group A”, the “increase of butyric acid concentration relative to Group A” value is recorded as “approximately 3.7 times of that in Group A” and the “amount of butyric acid in cecal contents” value is 2891.65 µg. For the same molecule, in series [1] (Group D: feed with 2.5% by mass 1-kestose, Group A 205.86 μg/g), the “concentration of butyric acid” value came out at 754.17 µg/g. Moreover, in series [1] (setting [13]), the “increase of butyric acid amount relative to Group A” value is given as “approximately 14.5 times of that in Group A”, the “increase of butyric acid concentration relative to Group A” value is recorded as “approximately 10 times of that in Group A” and the “amount of butyric acid in cecal contents” value is 11943.88 µg. In addition, in series [1] (Group E: feed with 5% by mass 1-kestose, 1.34 g/kg body weight, Group A 205.86 μg/g), the “concentration of butyric acid” value amounted to 2005.26 µg/g. In series [1] (setting [14]), the “concentrations and amounts of acetic acid in comparison with Group A” value is “significantly increased”; the “concentrations and amounts of isobutyric acid in comparison with Group A” value is listed as “significantly decreased”; the “concentrations and amounts of isovaleric acid in comparison with Group A” value was “not significantly different”; the “concentrations and amounts of propionic acid in comparison with Group A” value is listed as “not significantly different”. For the same molecule, in [1] (setting [14]), the “concentrations and amounts of valeric acid in comparison with Group A” value is given as “significantly decreased”. Moreover, the “concentrations and amounts of butyric acid in comparison with Group A” value in series [1] (any of Groups B to E (0.5 to 5% by mass 1-kestose in feed)) is on record as “markedly increased”. For the same molecule, in [2] (Group E), the “copy number of 16S rDNA from the group of butyric acid-producing bacteria relative to Group A” value is “approximately 5 times of that in Group A” and the “copy number of 16S rDNA from the group of butyric acid-producing bacteria, comparison with Group A in words” value is “significantly increased”. Further, the “copy number of 16S rDNA from Clostridium cluster XIV (a group of butyric acid-producing bacteria)” value in series [2] (Group E (5% by mass 1-kestose in feed, 30 days), Group A 5071250000) was 25287500000 per 1 g of the cecal contents. In addition, the “copy number of 16S rDNA from the genus Bifidobacterium in comparison with Group A” value in series [3] is reported as “significantly increased”. Further, the “copy number of 16S rDNA from Lactobacillus, Group E versus Group A” value in the series on The genus Lactobacillus is listed as “did not have significant difference”. In addition, the “copy number of 16S rDNA from Akkermansia muciniphila, Group E versus Group A” value with Akkermansia muciniphila was “did not have significant difference”. For the same molecule, the “toxicity in mutagenicity, acute toxicity, subchronic toxicity, and chronic toxicity tests” value in series [4] was “no toxicity”.

As for `CCCC(=O)O` [butyric acid], the inflammatory repair effect result in [5] is “significant inflammatory repair effect”. Moreover, in series [6], the “fatty degeneration and inflammation in the liver by the intake of high-fat meals” value is “suppress”; the “values of AST, ALT, cholesterol, LDL in blood, neutral fat and fasting blood sugar levels, and insulin resistance index (HOMA-IR)” value is given as “normalize”. Also, in [7], the “function and proliferation of β cells” value is recorded as “improve”; the glucose homeostasis entry was “improve”; the β cell death result is reported as “decrease”. In series [8], the proliferation rate entry is recorded as “decrease” and the proliferation time result is recorded as “extend”. Also, the “body weight and the body fat percentage” value in series [9] (oral, 5 g/kg body weight per day (in terms of sodium butyrate), mice in which obesity has been induced by high-fat meals) is “reduce”. For the same molecule, the “weight gain and increase of the body fat percentage by eating of high-fat meals” value in series [9] (oral, 5 g/kg body weight per day (in terms of sodium butyrate), mice that are not obese) is given as “suppress”.

`CCCC(=O)[O-].[Na+]` [sodium butyrate]: in series [9] (mice fed on high-fat meals into which 5% by mass is mixed), the “increase of body weight and increase of the body fat percentage” value is recorded as “suppressed”.
